From ChEMBL document CHEMBL3244099, “Various 5-substituted and 2,5-disubstituted 1,3-dioxanes, a new class of analgesic agents” (1977)

Species: Mus musculus
Assay: animal or person
Type: functional
Settings: not given

SMILES | ED50 [mg/kg]
CN(C)C(c1ccccc1)C1COCOC1.Cl (racemic) | 14
CN(C)C(c1ccccc1)C1COCOC1.Cl (stereo in doubt; (-)-4a) | 6.2
CN(C)C(c1ccccc1)C1COCOC1.Cl (stereo in doubt; (+)-4a) | >50
CN(C)C(c1cccnc1)C1COCOC1.Cl (stereo in doubt; (-)-4o) | 3.6
CN(C)C(c1cccnc1)C1COCOC1.Cl (stereo in doubt; (+)-4o) | >50
CN(C)C(c1cccnc1)C1COCOC1.Cl (racemic) | 6.1

Same assay, conditions: Mus musculus, sc; read-out: ED50

SMILES | ED50 [mg/kg]
CN(C)C(c1ccncc1)C1COCOC1.O=C(O)/C=C\C(=O)O (stereo not given) | > 50
CN(C)C(c1ccc(Cl)cc1)C1COCOC1.Cl (stereo not given) | 32
Cl.c1ccc(C(C2COCOC2)N2CCOCC2)cc1 (stereo not given) | > 50
CN(C)C(c1ccc(F)cc1)C1COCOC1.Cl (stereo not given) | 30
CN(C)C(c1ccccc1)C1(C)COCOC1.Cl (stereo not given) | > 50
CC(C)C1OCC(C(c2ccccc2)N(C)C)CO1.Cl (racemic) | > 50
COc1cccc(C(C2COCOC2)N(C)C)c1.O=C(O)/C=C\C(=O)O (stereo not given) | > 50
CCOC(=O)C1(c2ccccc2)CCN(C)CC1.Cl [MEPERIDINE HYDROCHLORIDE] | 2.9
Cl.c1ccc(C(C2COCOC2)N2CCCC2)cc1 (stereo not given) | > 50
CNC(c1ccccc1)C1COCOC1.Cl (stereo not given) | 21
Cl.Clc1ccc(C(C2COCOC2)N2CCCCC2)cc1 (stereo not given) | 33
CN1CC[C@]23c4c5ccc(O)c4O[C@H]2[C@@H](O)C=C[C@H]3[C@H]1C5.CN1CC[C@]23c4c5ccc(O)c4O[C@H]2[C@@H](O)C=C[C@H]3[C@H]1C5.O=S(=O)(O)O | 0.97
CN(C)C(c1cccc(O)c1)C1COCOC1.Cl (stereo not given) | > 50
CN(C)C(c1ccccc1Cl)C1COCOC1.Cl (stereo not given) | 48
Cc1cccc(C(C2COCOC2)N(C)C)c1.O=C(O)/C=C\C(=O)O (stereo not given) | > 50
CN(C)C(c1ccc(Cl)cc1Cl)C1COCOC1.Cl (stereo not given) | > 50
CN(C)C(c1ccccc1)C1COC(C2CCCCC2)OC1.Cl (racemic) | > 50
CCN(CC)C(c1ccccc1)C1COCOC1.[O-][Cl+3]([O-])([O-])O (stereo not given) | > 50

SMILES | ED50 [mg/kg]
Cl.NC(c1ccccc1)C1COCOC1 (stereo not given) | > 50
Cc1ccc(C(C2COCOC2)N(C)C)cc1.O=C(O)/C=C\C(=O)O (stereo not given) | 20
Cc1ccccc1C(C1COCOC1)N(C)C.Cl (stereo not given) | 39
CC1OCC(C(c2ccccc2)N(C)C)CO1 (racemic) | 3.9
CN(C)C(c1cccc(Cl)c1)C1COCOC1.O=C(O)/C=C\C(=O)O (stereo not given) | > 50
CN(C)C(c1cccc(OCc2ccccc2)c1)C1COCOC1.Cl (stereo not given) | > 50
CC1OCOCC1C(c1ccccc1)N(C)C.Cl (stereo not given) | 32
CCC1OCC(C(c2ccccc2)N(C)C)CO1 (racemic) | 19
C=CCN(C)C(c1ccccc1)C1COCOC1.Cl (stereo not given) | > 50
COc1ccc2c3c1O[C@H]1[C@@H](O)C=C[C@H]4[C@@H](C2)N(C)CC[C@@]341.O=S(=O)(O)O | 6.7
Cc1ccc(C(C2COC(C)OC2)N(C)C)cc1.Cl (racemic) | 2.9
CCC1(c2ccccc2)OCC(C(c2ccccc2)N(C)C)CO1.O=C(O)/C=C\C(=O)O (racemic) | > 50
CN(C)C(c1ccccc1)C1COC(C2CCCC2)OC1 (racemic) | 45
CN(C)C(c1ccccn1)C1COCOC1.O=C(O)/C=C\C(=O)O (stereo not given) | > 50
COc1ccc(C(C2COCOC2)N(C)C)cc1.Cl (stereo not given) | > 50
CN(C)C(c1ccc(O)cc1)C1COCOC1.Cl (stereo not given) | 13
CC(=O)Oc1ccc(C(C2COCOC2)N(C)C)cc1.Cl (stereo not given) | 11
CN(C)C(c1ccc(OCc2ccccc2)cc1)C1COCOC1.Cl (stereo not given) | > 50

What follows are compounds tested on Rattus norvegicus (assay: Analgesic activity in sc dosed rat assessed as dose required for 2 times increase in reaction time after 15 mins by tail jerk test relative to control). Settings: not given.
Type: functional

SMILES | ED [mg/kg]
CN(C)C(c1ccccc1)C1COCOC1.Cl (racemic) | 4
CCOC(=O)C1(c2ccccc2)CCN(C)CC1.Cl [MEPERIDINE HYDROCHLORIDE] | 1.9
CN(C)C(c1ccccc1)C1COCOC1.Cl (stereo in doubt; (-)-4a) | 2.4
CN(C)C(c1ccccc1)C1COCOC1.Cl (stereo in doubt; (+)-4a) | 69
CN(C)C(c1cccnc1)C1COCOC1.Cl (stereo in doubt; (-)-4o) | 5.7
Cc1ccc(C(C2COCOC2)N(C)C)cc1.O=C(O)/C=C\C(=O)O (stereo not given) | 7.9
CC1OCC(C(c2ccccc2)N(C)C)CO1 (racemic) | 6.3
CN(C)C(c1cccnc1)C1COCOC1.Cl (stereo in doubt; (+)-4o) | >80
Cc1ccc(C(C2COC(C)OC2)N(C)C)cc1.Cl (racemic) | 7.9
CN(C)C(c1cccnc1)C1COCOC1.Cl (racemic) | 9.6
CN(C)C(c1ccc(O)cc1)C1COCOC1.Cl (stereo not given) | 12
CC(=O)Oc1ccc(C(C2COCOC2)N(C)C)cc1.Cl (stereo not given) | 7.3

The compounds below were run on Rattus norvegicus (assay: Analgesic activity in sc dosed rat assessed as dose required for 2 times increase in reaction time after 30 mins by tail jerk test relative to control). Settings: not given.
Type: functional

SMILES | ED [mg/kg]
COc1ccc2c3c1O[C@H]1[C@@H](O)C=C[C@H]4[C@@H](C2)N(C)CC[C@@]341.O=S(=O)(O)O | 4.2
